Results published in article PMC7827406, “Structure–Activity Relationship (SAR) Study of Spautin-1 to Entail the Discovery of Novel NEK4 Inhibitors” (International Journal of Molecular Sciences, 2021).
Read-outs that look alike come from different tables or passages of the source.

How the values were obtained:
Test in all cases: biochemical
Design in all cases: Eurofins KinaseProfiler full panel at Km ATP, residual kinase activity (%) relative to DMSO
TGFBR2(h) = TGFBR2(h) (Homo sapiens, UniProt P37173)
In short: (§1)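 Two 10 µM single-concentration screens were run: a competition-binding screen, in which DNA-tagged kinase bound to immobilized ligands was quantified by qPCR, and a radiometric activity panel at Km ATP. Each is expressed as residual kinase activity (%).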

EphA4(h) = EphA4(h) (Homo sapiens, UniProt P54764)
In short: as §1

Hck(h) = Hck(h) (Homo sapiens, UniProt P08631)
In short: as §1

TSSK1(h) = molecular target: T1, TSSK1(h) (Homo sapiens, UniProt Q9BXA7)
T1 construct: gene TSSK1B
T1 sequence (Q9BXA7 1-367): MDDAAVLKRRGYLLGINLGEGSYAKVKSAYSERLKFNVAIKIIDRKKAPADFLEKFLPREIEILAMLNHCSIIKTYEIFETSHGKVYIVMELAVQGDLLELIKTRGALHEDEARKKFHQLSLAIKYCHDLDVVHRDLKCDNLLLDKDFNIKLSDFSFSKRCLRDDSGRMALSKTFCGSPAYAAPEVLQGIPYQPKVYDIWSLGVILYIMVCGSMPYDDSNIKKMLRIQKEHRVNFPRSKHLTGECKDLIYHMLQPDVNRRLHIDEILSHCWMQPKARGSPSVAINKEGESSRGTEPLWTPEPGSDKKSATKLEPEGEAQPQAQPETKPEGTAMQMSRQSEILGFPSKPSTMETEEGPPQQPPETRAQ
In short: as §1

Pyk2(h) = molecular target: T2, Pyk2(h) (Homo sapiens, UniProt Q14289)
T2 construct: gene PTK2B
In short: as §1

GRK5(h) = GRK5(h) (Homo sapiens, UniProt P34947)
In short: as §1

GRK6(h) = GRK6(h) (Homo sapiens, UniProt P43250)
In short: as §1

CDK7/cyclinH/MAT1(h) = CDK7/cyclinH/MAT1(h) (Homo sapiens, UniProt P50613)
In short: as §1

IGF-1R(h) = molecular target: T3, IGF-1R(h) (Homo sapiens, UniProt P08069)
T3 construct: gene IGF1R
In short: as §1

PhKγ2(h) = molecular target: T4, PhKγ2(h) (Homo sapiens, UniProt P15735)
T4 construct: gene PHKG2
T4 sequence (P15735 1-406): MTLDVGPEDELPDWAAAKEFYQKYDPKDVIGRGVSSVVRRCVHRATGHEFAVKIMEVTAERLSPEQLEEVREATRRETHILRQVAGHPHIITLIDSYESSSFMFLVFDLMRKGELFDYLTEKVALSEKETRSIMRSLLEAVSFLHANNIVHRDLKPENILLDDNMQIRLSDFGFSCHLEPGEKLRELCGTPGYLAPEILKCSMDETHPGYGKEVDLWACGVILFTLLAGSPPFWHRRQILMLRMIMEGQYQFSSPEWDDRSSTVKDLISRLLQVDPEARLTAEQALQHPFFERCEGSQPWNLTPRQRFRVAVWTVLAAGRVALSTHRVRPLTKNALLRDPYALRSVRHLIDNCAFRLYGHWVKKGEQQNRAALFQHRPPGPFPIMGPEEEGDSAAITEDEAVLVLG
In short: as §1

RIPK2(h) = RIPK2(h) (Homo sapiens, UniProt O43353)
In short: as §1

MINK(h) = molecular target: T5, MINK(h) (Homo sapiens, UniProt Q8N4C8)
T5 construct: gene MINK1
In short: as §1

TSSK4(h) = molecular target: T6, TSSK4(h) (Homo sapiens, UniProt Q6SA08)
T6 sequence (Q6SA08 1-328): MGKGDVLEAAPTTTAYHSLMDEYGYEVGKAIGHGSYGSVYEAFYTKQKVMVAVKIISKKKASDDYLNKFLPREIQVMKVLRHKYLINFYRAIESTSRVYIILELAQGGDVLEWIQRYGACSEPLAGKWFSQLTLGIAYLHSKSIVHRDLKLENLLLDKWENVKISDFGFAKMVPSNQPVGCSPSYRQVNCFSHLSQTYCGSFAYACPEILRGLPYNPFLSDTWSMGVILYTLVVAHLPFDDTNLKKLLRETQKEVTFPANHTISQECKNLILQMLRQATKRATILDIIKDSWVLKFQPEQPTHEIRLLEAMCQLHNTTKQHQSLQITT
In short: as §1

[1] = read-out: Residual activity (%) 5ay
[2] = read-out: Residual activity (%) Spautin-1 5aa
[3] = read-out: Residual activity (%) 5at
[4] = read-out: Residual activity (%) 5as

Sequence of TGFBR2(h) (P37173 whole entry): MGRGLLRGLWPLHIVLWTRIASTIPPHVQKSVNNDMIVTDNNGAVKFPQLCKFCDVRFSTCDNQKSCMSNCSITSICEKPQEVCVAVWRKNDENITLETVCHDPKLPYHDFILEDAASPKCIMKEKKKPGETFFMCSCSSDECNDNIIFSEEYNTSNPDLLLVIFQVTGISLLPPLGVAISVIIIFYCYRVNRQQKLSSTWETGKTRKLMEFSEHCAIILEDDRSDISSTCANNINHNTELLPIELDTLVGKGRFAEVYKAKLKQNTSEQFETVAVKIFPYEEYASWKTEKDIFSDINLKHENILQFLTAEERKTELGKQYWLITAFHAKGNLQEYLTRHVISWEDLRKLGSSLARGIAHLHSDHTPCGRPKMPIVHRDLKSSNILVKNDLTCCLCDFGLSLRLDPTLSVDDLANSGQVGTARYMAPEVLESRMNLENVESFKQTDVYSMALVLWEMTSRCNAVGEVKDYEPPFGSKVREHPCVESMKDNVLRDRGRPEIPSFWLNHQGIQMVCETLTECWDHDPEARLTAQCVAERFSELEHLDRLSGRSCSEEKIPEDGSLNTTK
Sequence of CDK7/cyclinH/MAT1(h) (P50613 whole entry): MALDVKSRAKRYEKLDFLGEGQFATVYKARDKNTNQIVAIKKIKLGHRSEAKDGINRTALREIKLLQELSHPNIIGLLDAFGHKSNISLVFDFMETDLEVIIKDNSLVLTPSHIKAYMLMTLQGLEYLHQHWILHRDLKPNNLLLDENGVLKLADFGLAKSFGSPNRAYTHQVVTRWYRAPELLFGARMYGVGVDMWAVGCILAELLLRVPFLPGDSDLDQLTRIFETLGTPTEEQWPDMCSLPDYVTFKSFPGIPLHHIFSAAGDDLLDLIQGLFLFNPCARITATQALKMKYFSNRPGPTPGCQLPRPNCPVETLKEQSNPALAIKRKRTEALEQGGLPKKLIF
Sequence of CDK7/cyclinH/MAT1(h) (P51946 whole entry partner): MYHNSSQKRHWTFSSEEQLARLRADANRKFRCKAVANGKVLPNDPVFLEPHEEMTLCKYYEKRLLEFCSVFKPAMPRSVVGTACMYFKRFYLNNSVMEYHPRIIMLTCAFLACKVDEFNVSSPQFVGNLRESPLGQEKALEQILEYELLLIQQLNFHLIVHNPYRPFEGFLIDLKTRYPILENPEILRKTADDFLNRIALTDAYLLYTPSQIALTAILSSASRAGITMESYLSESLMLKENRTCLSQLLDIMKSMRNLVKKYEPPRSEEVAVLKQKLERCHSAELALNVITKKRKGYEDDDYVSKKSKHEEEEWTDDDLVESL
Sequence of CDK7/cyclinH/MAT1(h) (P51948 whole entry partner): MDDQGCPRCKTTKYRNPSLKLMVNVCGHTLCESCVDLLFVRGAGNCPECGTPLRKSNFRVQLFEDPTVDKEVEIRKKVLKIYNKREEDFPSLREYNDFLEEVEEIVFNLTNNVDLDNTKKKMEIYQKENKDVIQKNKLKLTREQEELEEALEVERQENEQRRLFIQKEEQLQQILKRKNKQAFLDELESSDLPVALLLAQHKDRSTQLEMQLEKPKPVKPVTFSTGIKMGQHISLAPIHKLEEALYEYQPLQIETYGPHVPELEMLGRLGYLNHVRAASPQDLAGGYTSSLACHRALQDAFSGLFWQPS
Sequence of GRK5(h) (P34947 whole entry): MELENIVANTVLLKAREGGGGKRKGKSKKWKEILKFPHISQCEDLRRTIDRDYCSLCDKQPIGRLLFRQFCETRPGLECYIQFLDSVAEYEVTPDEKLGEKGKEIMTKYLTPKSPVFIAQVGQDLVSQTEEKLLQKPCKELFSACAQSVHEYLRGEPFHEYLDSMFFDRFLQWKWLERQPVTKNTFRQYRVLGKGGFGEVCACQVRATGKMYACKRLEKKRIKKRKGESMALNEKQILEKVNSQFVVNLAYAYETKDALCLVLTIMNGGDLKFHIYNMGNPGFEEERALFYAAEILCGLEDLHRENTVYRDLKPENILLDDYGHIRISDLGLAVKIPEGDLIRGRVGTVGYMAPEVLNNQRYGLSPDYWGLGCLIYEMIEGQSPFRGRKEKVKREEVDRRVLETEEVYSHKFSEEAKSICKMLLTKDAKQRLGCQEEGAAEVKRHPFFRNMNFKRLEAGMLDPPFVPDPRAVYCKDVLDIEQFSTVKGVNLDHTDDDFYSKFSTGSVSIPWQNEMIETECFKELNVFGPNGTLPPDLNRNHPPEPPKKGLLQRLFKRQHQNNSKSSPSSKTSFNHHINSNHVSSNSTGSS
Sequence of Hck(h) (P08631 whole entry): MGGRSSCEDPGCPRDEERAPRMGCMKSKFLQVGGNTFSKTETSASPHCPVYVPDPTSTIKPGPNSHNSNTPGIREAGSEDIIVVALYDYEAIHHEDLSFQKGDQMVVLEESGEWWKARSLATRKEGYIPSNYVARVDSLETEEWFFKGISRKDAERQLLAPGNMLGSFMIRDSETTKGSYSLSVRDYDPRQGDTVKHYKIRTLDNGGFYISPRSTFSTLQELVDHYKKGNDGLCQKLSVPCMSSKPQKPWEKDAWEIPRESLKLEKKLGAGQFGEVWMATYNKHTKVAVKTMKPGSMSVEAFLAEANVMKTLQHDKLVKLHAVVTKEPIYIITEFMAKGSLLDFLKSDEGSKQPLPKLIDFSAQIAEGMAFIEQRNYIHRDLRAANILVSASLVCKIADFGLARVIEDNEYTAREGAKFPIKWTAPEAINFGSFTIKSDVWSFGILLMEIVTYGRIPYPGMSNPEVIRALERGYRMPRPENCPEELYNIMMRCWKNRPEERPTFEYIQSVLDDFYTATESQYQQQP
T2 sequence (Q14289 whole entry): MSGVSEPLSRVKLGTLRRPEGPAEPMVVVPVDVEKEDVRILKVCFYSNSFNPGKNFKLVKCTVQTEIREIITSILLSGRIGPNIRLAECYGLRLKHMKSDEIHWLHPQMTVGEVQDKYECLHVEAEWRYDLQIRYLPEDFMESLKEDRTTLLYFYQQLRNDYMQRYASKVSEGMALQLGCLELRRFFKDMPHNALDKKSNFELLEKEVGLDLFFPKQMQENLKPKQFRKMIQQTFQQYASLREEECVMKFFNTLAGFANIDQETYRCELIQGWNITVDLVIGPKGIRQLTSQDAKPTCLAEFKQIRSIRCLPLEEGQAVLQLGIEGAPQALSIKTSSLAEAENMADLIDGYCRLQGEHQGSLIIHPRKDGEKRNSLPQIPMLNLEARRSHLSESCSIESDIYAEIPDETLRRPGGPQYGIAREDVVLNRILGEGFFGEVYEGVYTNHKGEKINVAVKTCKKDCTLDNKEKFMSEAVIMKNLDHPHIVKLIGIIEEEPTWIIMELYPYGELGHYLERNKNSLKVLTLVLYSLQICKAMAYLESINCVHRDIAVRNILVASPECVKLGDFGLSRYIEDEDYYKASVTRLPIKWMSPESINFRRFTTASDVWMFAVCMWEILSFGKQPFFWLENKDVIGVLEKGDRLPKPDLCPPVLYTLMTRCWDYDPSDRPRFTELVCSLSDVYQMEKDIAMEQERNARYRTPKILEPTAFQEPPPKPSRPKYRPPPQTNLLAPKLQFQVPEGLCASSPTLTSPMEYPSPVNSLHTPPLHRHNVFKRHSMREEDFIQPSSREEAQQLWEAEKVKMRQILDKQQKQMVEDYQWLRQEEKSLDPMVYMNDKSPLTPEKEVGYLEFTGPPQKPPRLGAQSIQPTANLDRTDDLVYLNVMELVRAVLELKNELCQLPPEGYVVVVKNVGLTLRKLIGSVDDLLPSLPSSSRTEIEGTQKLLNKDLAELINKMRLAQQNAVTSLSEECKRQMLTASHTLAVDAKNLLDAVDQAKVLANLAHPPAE
Sequence of EphA4(h) (P54764 whole entry): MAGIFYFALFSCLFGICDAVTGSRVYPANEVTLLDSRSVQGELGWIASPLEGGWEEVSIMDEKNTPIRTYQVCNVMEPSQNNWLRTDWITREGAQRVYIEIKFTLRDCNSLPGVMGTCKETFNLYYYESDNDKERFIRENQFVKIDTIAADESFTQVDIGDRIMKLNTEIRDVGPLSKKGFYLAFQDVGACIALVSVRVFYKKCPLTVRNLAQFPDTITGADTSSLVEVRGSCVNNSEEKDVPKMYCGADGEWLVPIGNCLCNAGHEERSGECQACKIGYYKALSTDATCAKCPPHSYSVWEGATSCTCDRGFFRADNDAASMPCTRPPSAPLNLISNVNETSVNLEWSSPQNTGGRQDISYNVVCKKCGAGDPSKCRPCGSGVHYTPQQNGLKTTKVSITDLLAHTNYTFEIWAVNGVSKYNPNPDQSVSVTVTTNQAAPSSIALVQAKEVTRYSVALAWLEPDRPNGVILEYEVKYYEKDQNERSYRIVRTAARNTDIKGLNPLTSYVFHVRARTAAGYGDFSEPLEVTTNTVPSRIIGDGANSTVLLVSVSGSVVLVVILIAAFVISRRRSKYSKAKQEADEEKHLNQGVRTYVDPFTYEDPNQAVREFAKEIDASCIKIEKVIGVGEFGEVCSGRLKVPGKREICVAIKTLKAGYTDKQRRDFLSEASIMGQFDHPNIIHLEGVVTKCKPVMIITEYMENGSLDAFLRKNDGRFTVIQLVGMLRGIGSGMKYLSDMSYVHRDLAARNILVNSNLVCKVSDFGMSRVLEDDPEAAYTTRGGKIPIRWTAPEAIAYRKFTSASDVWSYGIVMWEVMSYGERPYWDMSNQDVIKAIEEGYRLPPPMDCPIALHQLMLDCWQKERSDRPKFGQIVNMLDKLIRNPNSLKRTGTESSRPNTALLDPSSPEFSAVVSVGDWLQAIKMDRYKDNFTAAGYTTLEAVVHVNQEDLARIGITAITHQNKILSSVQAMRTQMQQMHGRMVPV

With `COc1ccc2ncnc(Nc3cccc(F)c3)c2c1` [5ay, N-(3-Fluorophenyl)-6-Methoxy-4-Quinazolinamine] the remaining activity at 10 µM (TGFBR2(h); [1]) was 96%, the remaining activity at 10 µM (EphA4(h); [1]) was 86% and the remaining activity at 10 µM (Hck(h); [1]) was 64%. The remaining activity at 10 µM (TSSK1(h); [1]) was 81%, the remaining activity at 10 µM (Pyk2(h); [1]) was 72% and the remaining activity at 10 µM (GRK5(h); [1]) was 89%. It also gave a remaining activity at 10 µM (GRK6(h); [1]) of 110%, a remaining activity at 10 µM (CDK7/cyclinH/MAT1(h); [1]) of 58% and a remaining activity at 10 µM (IGF-1R(h); [1]) of 101%. The remaining activity at 10 µM (PhKγ2(h); [1]) was 109%, the remaining activity at 10 µM (RIPK2(h); [1]) was 22% and the remaining activity at 10 µM (MINK(h); [1]) was 67%. The remaining activity at 10 µM (TSSK4(h); [1]) was 134%.

`Fc1ccc(CNc2ncnc3ccc(F)cc23)cc1` [5aa, 6-Fluoro-N-(4-fluorobenzyl)-4-Quinazolinamine] was tested, and the remaining activity at 10 µM (TGFBR2(h); [2]) was 97%, the remaining activity at 10 µM (EphA4(h); [2]) was 89% and the remaining activity at 10 µM (Hck(h); [2]) was 72%. It also gave a remaining activity at 10 µM (TSSK1(h); [2]) of 82%, a remaining activity at 10 µM (Pyk2(h); [2]) of 86% and a remaining activity at 10 µM (GRK5(h); [2]) of 86%. It also gave a remaining activity at 10 µM (GRK6(h); [2]) of 100%, a remaining activity at 10 µM (CDK7/cyclinH/MAT1(h); [2]) of 62% and a remaining activity at 10 µM (IGF-1R(h); [2]) of 90%. For the same compound, the remaining activity at 10 µM (PhKγ2(h); [2]) was 78%, the remaining activity at 10 µM (RIPK2(h); [2]) was 82% and the remaining activity at 10 µM (MINK(h); [2]) was 86%. For the same compound, the remaining activity at 10 µM (TSSK4(h); [2]) was 89%.

`Fc1ccc2ncnc(NCCc3ccc(Cl)cc3)c2c1` [5at, N-[2-(4-Chlorophenyl)Ethyl]-6-Fluoro-4-Quinazolinamine] was tested, and the remaining activity at 10 µM (TGFBR2(h); [3]) was 93%, the remaining activity at 10 µM (EphA4(h); [3]) was 80% and the remaining activity at 10 µM (Hck(h); [3]) was 62%. The remaining activity at 10 µM (TSSK1(h); [3]) was 77%, the remaining activity at 10 µM (Pyk2(h); [3]) was 69% and the remaining activity at 10 µM (GRK5(h); [3]) was 96%. The remaining activity at 10 µM (GRK6(h); [3]) was 99%, the remaining activity at 10 µM (CDK7/cyclinH/MAT1(h); [3]) was 59% and the remaining activity at 10 µM (IGF-1R(h); [3]) was 83%. For the same compound, the remaining activity at 10 µM (PhKγ2(h); [3]) was 82%, the remaining activity at 10 µM (RIPK2(h); [3]) was 86% and the remaining activity at 10 µM (MINK(h); [3]) was 89%. For the same compound, the remaining activity at 10 µM (TSSK4(h); [3]) was 125%.

`Fc1ccc(CCNc2ncnc3ccc(F)cc23)cc1` [5as, 6-Fluoro-N-[2-(4-Fluorophenyl)Ethyl]-4-Quinazolinamine] was tested, and the remaining activity at 10 µM (TGFBR2(h); [4]) was 91%, the remaining activity at 10 µM (EphA4(h); [4]) was 83% and the remaining activity at 10 µM (Hck(h); [4]) was 74%. For the same compound, the remaining activity at 10 µM (TSSK1(h); [4]) was 82%, the remaining activity at 10 µM (Pyk2(h); [4]) was 74% and the remaining activity at 10 µM (GRK5(h); [4]) was 95%. For the same compound, the remaining activity at 10 µM (GRK6(h); [4]) was 104%, the remaining activity at 10 µM (CDK7/cyclinH/MAT1(h); [4]) was 49% and the remaining activity at 10 µM (IGF-1R(h); [4]) was 83%. The remaining activity at 10 µM (PhKγ2(h); [4]) was 91%, the remaining activity at 10 µM (RIPK2(h); [4]) was 86% and the remaining activity at 10 µM (MINK(h); [4]) was 88%. It also gave a remaining activity at 10 µM (TSSK4(h); [4]) of 112%.
